The NIST ThermoML archive (doi:10.1016/j.jct.2018.02.022)
Where “and” joins values, the source holds several entries; their conditions need not be identical. Equal values may be shown once.

Experiment: xn = mol fraction of the nth substance listed
Conditions: 92.3 kPa, Liquid; for viscosity: Concentric cylinders viscometry; for speed of sound: Frequency=3 MHz, Single path-length method; for mass density: Vibrating tube method

CCO [ethanol] + O
Conditions | mass density, 303.15 K | mass density, 308.15 K | speed of sound, 303.15 K [m/s] | speed of sound, 308.15 K [m/s] | viscosity, 303.15 K [mPa·s] | viscosity, 308.15 K [mPa·s]
x1 = 0.0024 | 994.464 kg/m3 | 992.863 kg/m3 | 1513.4 | 1523.3 | – | –
x1 = 0.0201 | 986.86 kg/m3 | 985.15 kg/m3 | – | – | 0.9816 | 0.8821
x1 = 0.0202 | 986.01 kg/m3 | 984.706 kg/m3 | 1541.3 | 1548.3 | – | –
x1 = 0.0295 | 983.11 kg/m3 | 981.361 kg/m3 | 1555 | 1560.3 | – | –
x1 = 0.0366 | 980.577 kg/m3 | 978.735 kg/m3 | 1564.9 | 1568.9 | – | –
x1 = 0.0408 | 978.54 kg/m3 | 976.58 kg/m3 | – | – | 1.162 | 1.006
x1 = 0.0497 | 976.06 kg/m3 | 973.32 kg/m3 | – | – | 1.223 | 1.073
x1 = 0.0513 | 975.532 kg/m3 | 973.534 kg/m3 | 1583.5 | 1584.5 | – | –
x1 = 0.06 | 971.89 kg/m3 and 972.787 kg/m3 | 970.651 kg/m3 and 969.36 kg/m3 | 1592.4 | 1591.8 | 1.323 | 1.158
x1 = 0.0707 | 969.513 kg/m3 | 967.196 kg/m3 | 1601.4 | 1598.7 | – | –
x1 = 0.0796 | 966.81 kg/m3 | 964.08 kg/m3 | – | – | 1.49 | 1.284
x1 = 0.0801 | 966.689 kg/m3 | 964.224 kg/m3 | 1607 | 1602.7 | – | –
x1 = 0.0904 | 963.577 kg/m3 | 960.944 kg/m3 | 1610.8 | 1604.7 | – | –
x1 = 0.0997 | 960.797 kg/m3 | 958.013 kg/m3 | 1611.9 | 1604.4 | – | –
x1 = 0.1004 | 958.69 kg/m3 | 955.87 kg/m3 | – | – | 1.656 | 1.43
x1 = 0.1294 | 951.878 kg/m3 | 948.682 kg/m3 | 1602.7 | 1592.3 | – | –
x1 = 0.1497 | 945.612 kg/m3 | 942.174 kg/m3 | 1588.3 | 1576.5 | – | –
x1 = 0.1499 | 945.56 kg/m3 | 942.15 kg/m3 | – | – | 1.88 | 1.591
x1 = 0.1984 | 928.77 kg/m3 | 925.04 kg/m3 | – | – | 1.994 | 1.696
x1 = 0.2008 | 929.658 kg/m3 | 925.836 kg/m3 | 1540.8 | 1527.8 | – | –
x1 = 0.2499 | 915.3 kg/m3 | 911.28 kg/m3 | – | – | 2.048 | 1.719
x1 = 0.2503 | 914.742 kg/m3 | 910.712 kg/m3 | 1493.5 | 1480 | – | –
x1 = 0.2998 | 900.761 kg/m3 | 896.603 kg/m3 | 1450.6 | 1436.6 | – | –
x1 = 0.3016 | 900.76 kg/m3 | 896.6 kg/m3 | – | – | 1.982 | 1.697
x1 = 0.3499 | 888.09 kg/m3 | 883.84 kg/m3 | – | – | 1.934 | 1.664
x1 = 0.3507 | 887.521 kg/m3 | 883.273 kg/m3 | 1411.8 | 1397.3 | – | –
x1 = 0.399 | 876.09 kg/m3 | 871.78 kg/m3 | – | – | 1.863 | 1.617
x1 = 0.3992 | 875.988 kg/m3 | 871.678 kg/m3 | 1379.4 | 1364.6 | – | –
x1 = 0.4495 | 865.03 kg/m3 | 860.66 kg/m3 | – | – | 1.783 | 1.55
x1 = 0.4514 | 864.712 kg/m3 | 860.353 kg/m3 | 1348.7 | 1333.4 | – | –
x1 = 0.4989 | 855.7 kg/m3 | 851.3 kg/m3 | – | – | 1.697 | 1.482
x1 = 0.5002 | 854.622 kg/m3 | 850.223 kg/m3 | 1322.3 | 1306.7 | – | –
x1 = 0.5494 | 845.433 kg/m3 | 841.009 kg/m3 | 1298.6 | 1282.7 | – | –
x1 = 0.5495 | 846.35 kg/m3 | 841.93 kg/m3 | – | – | 1.636 | 1.437
x1 = 0.6018 | 836.274 kg/m3 | 831.83 kg/m3 | 1275.2 | 1259 | – | –
x1 = 0.6067 | 835.6 kg/m3 | 831.06 kg/m3 | – | – | 1.528 | 1.347
x1 = 0.6503 | 828.55 kg/m3 and 828.435 kg/m3 | 823.98 kg/m3 and 824.09 kg/m3 | 1255.3 | 1238.8 | 1.46 | 1.292
x1 = 0.6956 | 821.65 kg/m3 | 817.19 kg/m3 | – | – | 1.388 | 1.229
x1 = 0.7006 | 820.66 kg/m3 | 816.2 kg/m3 | 1235.5 | 1218.8 | – | –
x1 = 0.7355 | 815.498 kg/m3 | 811.052 kg/m3 | 1222.2 | 1206.3 | – | –
x1 = 0.75 | 813.63 kg/m3 | 809.16 kg/m3 | – | – | 1.315 | 1.171
x1 = 0.7843 | 809.09 kg/m3 | 804.63 kg/m3 | – | – | 1.272 | 1.135
x1 = 0.7965 | 807.074 kg/m3 | 802.628 kg/m3 | 1199.9 | 1183 | – | –
x1 = 0.8433 | 800.833 kg/m3 | 796.401 kg/m3 | 1183.1 | 1166.1 | – | –
x1 = 0.8475 | 801.24 kg/m3 | 796.81 kg/m3 | – | – | 1.201 | 1.077
x1 = 0.8864 | 795.58 kg/m3 | 791.17 kg/m3 | – | – | 1.141 | 1.027
x1 = 0.892 | 794.442 kg/m3 | 790.037 kg/m3 | 1165.4 | 1148.7 | – | –
x1 = 0.9093 | 792.256 kg/m3 | 787.861 kg/m3 | 1159.2 | 1142.6 | – | –
x1 = 0.9207 | 790.841 kg/m3 | 786.448 kg/m3 | 1155.2 | 1138.3 | – | –
x1 = 0.929 | 789.85 kg/m3 | 785.46 kg/m3 | – | – | 1.086 | 0.9821
x1 = 0.9307 | 789.562 kg/m3 | 785.175 kg/m3 | 1151.5 | 1134.6 | – | –
x1 = 0.9398 | 788.477 kg/m3 | 784.096 kg/m3 | 1148.3 | 1131.4 | – | –
x1 = 0.9483 | 787.394 kg/m3 | 783.019 kg/m3 | 1145.2 | 1128.4 | – | –
x1 = 0.9603 | 785.958 kg/m3 | 781.59 kg/m3 | 1141.1 | 1124.2 | – | –
x1 = 0.9702 | 784.743 kg/m3 | 780.379 kg/m3 | 1137.5 | 1120.6 | – | –
x1 = 0.9801 | 783.417 kg/m3 | 779.061 kg/m3 | 1134.3 | 1117.5 | – | –
x1 = 0.9895 | 782.456 kg/m3 | 778.103 kg/m3 | 1130.8 | 1114 | – | –
x1 = 1 | 780.941 kg/m3 | 776.592 kg/m3 | 1126.4 | 1109.6 | 0.992 | 0.9039
